What was measured:
HEK293 cells [1] = test: Preliminary screening as mRNA vectors, EGFP mRNA transfection of HEK293 cells; format: cell-based; conditions: HEK293 cells, 96-well plates, EGFP mRNA 50 ng per well; percentage of GFP fluorescent cells relative to total number of cells (Hoechst)
Summary of the method: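 HEK293 cells in DMEM plus 10% FBS transfected in 96-well format with 50 ng EGFP mRNA per well; Lipofectamine2000 served as positive control. Read-out is the percentage of GFP-fluorescent cells among total cells, counted by Hoechst nuclear stain.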

HEK293 cells [2] = test: Preliminary screening as DNA vectors, GFP transfection of HEK293 cells; format: cell-based; conditions: HEK293 cells; lipid/DOPE liposome with 75 ng plasmid DNA (psin-EGFP-IRES-Puro); number of cells expressing GFP divided by total number of nuclei (Hoechst)
Summary of the method: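 HEK293 cells in DMEM/10% FBS transfected with 75 ng EGFP plasmid per well complexed with amino lipid/DOPE liposomes in pH 5.6 sodium acetate. Hoechst nuclear stain added 20-24 h post-transfection, then cells cultured another 20-24 h. Confocal imaging gives GFP-positive cells as % of total nuclei.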

Row | SMILES | Absolute mRNA transfection efficiency in HEK293 cells (HEK293 cells [1]) [%] | Absolute DNA transfection efficiency in HEK293 cells (HEK293 cells [2]) [%]
1 | CCCCCCCCCCCCNc1nc(NCCCCCCCCC)nc(NCCN(C)C)n1 [Compound N9N12D1] | 0.5 | 0.0
2 | CCCCCCCCCCCCNc1nc(NCCCCCCCCC)nc(NCCN2CCOCC2)n1 [Compound N9N12D2] | 0.8 | 0.0
3 | CCCCCCCCCCCCNc1nc(NCCCCCCCCC)nc(NCCN2CCCC2)n1 [Compound N9N12D3] | 4.3 | 0.6
4 | CCCCCCCCCCCCNc1nc(NCCCCCCCCC)nc(NCCN2CCCCC2)n1 [Compound N9N12D4] | 2.4 | 0.0
5 | CCCCCCCCCCCCNc1nc(NCCCCCCCCC)nc(NCCN2CCN(C)CC2)n1 [Compound N9N12D5] | 3.8 | 0.0
6 | CCCCCCCCCCCCNc1nc(NCCCCCCCCC)nc(NCCCN(C)C)n1 [Compound N9N12D6] | 0.2 | 0.0
7 | CCCCCCCCCCCCNc1nc(NCCCCCCCCC)nc(NCCN(CC)CC)n1 [Compound N9N12D7] | 0.0 | 0.0
8 | CCCCCCCCCCCCNc1nc(NCCCCCCCCC)nc(NCCCN2CCOCC2)n1 [Compound N9N12D8] | 0.0 | 0.0
9 | CCCCCCCCCCCCNc1nc(NCCCCCCCCC)nc(NCCCN2CCN(C)CC2)n1 [Compound N9N12D9] | 0.1 | 0.0
10 | CCCCCCCCCCCCNc1nc(NCCCCCCCCC)nc(NCC2CCN(C)CC2)n1 [Compound N9N12D10] | 0.4 | 0.0
11 | CCCCCCCCCCCCCNc1nc(NCCCCCCCCC)nc(NCCN(C)C)n1 [Compound N9N13D1] | 2.2 | 0.4
12 | CCCCCCCCCCCCCNc1nc(NCCCCCCCCC)nc(NCCN2CCOCC2)n1 [Compound N9N13D2] | 0.6 | 0.0
13 | CCCCCCCCCCCCCNc1nc(NCCCCCCCCC)nc(NCCN2CCCC2)n1 [Compound N9N13D3] | 4.6 | 1.0
14 | CCCCCCCCCCCCCNc1nc(NCCCCCCCCC)nc(NCCN2CCCCC2)n1 [Compound N9N13D4] | 0.5 | 0.0
15 | CCCCCCCCCCCCCNc1nc(NCCCCCCCCC)nc(NCCN2CCN(C)CC2)n1 [Compound N9N13D5] | 0.2 | 0.3
16 | CCCCCCCCCCCCCNc1nc(NCCCCCCCCC)nc(NCCCN(C)C)n1 [Compound N9N13D6] | 0.4 | 0.0
17 | CCCCCCCCCCCCCNc1nc(NCCCCCCCCC)nc(NCCN(CC)CC)n1 [Compound N9N13D7] | 0.3 | 0.0
18 | CCCCCCCCCCCCCNc1nc(NCCCCCCCCC)nc(NCCCN2CCOCC2)n1 [Compound N9N13D8] | 0.0 | 0.0
19 | CCCCCCCCCCCCCNc1nc(NCCCCCCCCC)nc(NCCCN2CCN(C)CC2)n1 [Compound N9N13D9] | 2.5 | 0.0
20 | CCCCCCCCCCCCCNc1nc(NCCCCCCCCC)nc(NCC2CCN(C)CC2)n1 [Compound N9N13D10] | 2.8 | 0.3
21 | CCCCCCCCCCCCCCCNc1nc(NCCCCCCCCC)nc(NCCN(C)C)n1 [Compound N9N15D1] | 2.2 | 0.5
22 | CCCCCCCCCCCCCCCNc1nc(NCCCCCCCCC)nc(NCCN2CCOCC2)n1 [Compound N9N15D2] | 0.2 | 0.0
23 | CCCCCCCCCCCCCCCNc1nc(NCCCCCCCCC)nc(NCCN2CCCC2)n1 [Compound N9N15D3] | 4.7 | 0.5
24 | CCCCCCCCCCCCCCCNc1nc(NCCCCCCCCC)nc(NCCN2CCCCC2)n1 [Compound N9N15D4] | 0.6 | 0.0

Row | SMILES | Absolute mRNA transfection efficiency in HEK293 cells (HEK293 cells [1]) [%] | Absolute DNA transfection efficiency in HEK293 cells (HEK293 cells [2]) [%]
25 | CCCCCCCCCCCCCCCNc1nc(NCCCCCCCCC)nc(NCCN2CCN(C)CC2)n1 [Compound N9N15D5] | 1.8 | 0.2
26 | CCCCCCCCCCCCCCCNc1nc(NCCCCCCCCC)nc(NCCCN(C)C)n1 [Compound N9N15D6] | 1.7 | 0.0
27 | CCCCCCCCCCCCCCCNc1nc(NCCCCCCCCC)nc(NCCN(CC)CC)n1 [Compound N9N15D7] | 0.8 | 0.0
28 | CCCCCCCCCCCCCCCNc1nc(NCCCCCCCCC)nc(NCCCN2CCOCC2)n1 [Compound N9N15D8] | 1.4 | 0.2
29 | CCCCCCCCCCCCCCCNc1nc(NCCCCCCCCC)nc(NCCCN2CCN(C)CC2)n1 [Compound N9N15D9] | 1.1 | 0.9
30 | CCCCCCCCCCCCCCCNc1nc(NCCCCCCCCC)nc(NCC2CCN(C)CC2)n1 [Compound N9N15D10] | 1.7 | 0.0
31 | CCCCCCCCCCCCCCCCNc1nc(NCCCCCCCCC)nc(NCCN(C)C)n1 [Compound N9N16D1] | 1.5 | 2.1
32 | CCCCCCCCCCCCCCCCNc1nc(NCCCCCCCCC)nc(NCCN2CCOCC2)n1 [Compound N9N16D2] | 0.7 | 0.0
33 | CCCCCCCCCCCCCCCCNc1nc(NCCCCCCCCC)nc(NCCN2CCCC2)n1 [Compound N9N16D3] | 4.3 | 2.2
34 | CCCCCCCCCCCCCCCCNc1nc(NCCCCCCCCC)nc(NCCN2CCCCC2)n1 [Compound N9N16D4] | 4.5 | 0.8
35 | CCCCCCCCCCCCCCCCNc1nc(NCCCCCCCCC)nc(NCCN2CCN(C)CC2)n1 [Compound N9N16D5] | 0.0 | 0.0
36 | CCCCCCCCCCCCCCCCNc1nc(NCCCCCCCCC)nc(NCCCN(C)C)n1 [Compound N9N16D6] | 6.2 | 2.2
37 | CCCCCCCCCCCCCCCCNc1nc(NCCCCCCCCC)nc(NCCN(CC)CC)n1 [Compound N9N16D7] | 1.1 | 0.0
38 | CCCCCCCCCCCCCCCCNc1nc(NCCCCCCCCC)nc(NCCCN2CCOCC2)n1 [Compound N9N16D8] | 0.0 | 1.8
39 | CCCCCCCCCCCCCCCCNc1nc(NCCCCCCCCC)nc(NCCCN2CCN(C)CC2)n1 [Compound N9N16D9] | 1.1 | 0.0
40 | CCCCCCCCCCCCCCCCNc1nc(NCCCCCCCCC)nc(NCC2CCN(C)CC2)n1 [Compound N9N16D10] | 1.2 | 4.8
41 | CCCCCCCCCCCCCCCCCCNc1nc(NCCCCCCCCC)nc(NCCN(C)C)n1 [Compound N9N18D1] | 5.1 | 4.0
42 | CCCCCCCCCCCCCCCCCCNc1nc(NCCCCCCCCC)nc(NCCN2CCOCC2)n1 [Compound N9N18D2] | 25.3 | 3.6
43 | CCCCCCCCCCCCCCCCCCNc1nc(NCCCCCCCCC)nc(NCCN2CCCC2)n1 [Compound N9N18D3] | 4.7 | 2.0
44 | CCCCCCCCCCCCCCCCCCNc1nc(NCCCCCCCCC)nc(NCCN2CCCCC2)n1 [Compound N9N18D4] | 1.3 | 19.9
45 | CCCCCCCCCCCCCCCCCCNc1nc(NCCCCCCCCC)nc(NCCN2CCN(C)CC2)n1 [Compound N9N18D5] | 0.9 | 0.0
46 | CCCCCCCCCCCCCCCCCCNc1nc(NCCCCCCCCC)nc(NCCCN(C)C)n1 [Compound N9N18D6] | 2.5 | 2.2
47 | CCCCCCCCCCCCCCCCCCNc1nc(NCCCCCCCCC)nc(NCCN(CC)CC)n1 [Compound N9N18D7] | 0.6 | 3.0
48 | CCCCCCCCCCCCCCCCCCNc1nc(NCCCCCCCCC)nc(NCCCN2CCOCC2)n1 [Compound N9N18D8] | 0.3 | 1.4
